Measured values taken from PubChem BioAssay AID2060509 (Molecular Pharmacology Branch, DTP, NCI, 2025).

System: 485176-168-R4-J1-PDC spheroids with HUVEC/MSC, viability
Experiment: Anticancer human tumor 485176-168-R4-J1-PDC patient-derived pancreatic adenocarcinoma cell line growth inhibition [GQUAD]
Conditions: for IC50: curve of first compound; for viability, T/C: stronger effect = lower value
In short: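 Viability of tumor cells grown as complex spheroids with endothelial and stromal cells, exposed to drug combinations. Top concentration at or near clinical Cmax (else 10 microM), diluted in half-log increments.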

[1] = second compound 0.0316 µM, first compound 0.0316 µM
[2] = second compound 0.0316 µM, first compound 0.1 µM
[3] = second compound 0.0316 µM, first compound 0.316 µM
[4] = second compound 0.0316 µM, first compound 1 µM
[5] = second compound 0.0316 µM, first compound 3.16 µM
[6] = second compound 0.0316 µM, first compound 10 µM
[7] = second compound 0.1 µM, first compound 0.0316 µM
[8] = second compound 0.1 µM, first compound 0.1 µM
[9] = second compound 0.1 µM, first compound 0.316 µM
[10] = second compound 0.1 µM, first compound 1 µM
[11] = second compound 0.1 µM, first compound 3.16 µM
[12] = second compound 0.1 µM, first compound 10 µM
[13] = second compound 0.316 µM, first compound 0.0316 µM
[14] = second compound 0.316 µM, first compound 0.1 µM
[15] = second compound 0.316 µM, first compound 0.316 µM
[16] = second compound 0.316 µM, first compound 1 µM
[17] = second compound 0.316 µM, first compound 3.16 µM
[18] = second compound 0.316 µM, first compound 10 µM
[19] = second compound 1 µM, first compound 0.0316 µM
[20] = second compound 1 µM, first compound 0.1 µM
[21] = second compound 1 µM, first compound 0.316 µM
[22] = second compound 1 µM, first compound 1 µM
[23] = second compound 1 µM, first compound 3.16 µM
[24] = second compound 1 µM, first compound 10 µM
[25] = second compound 3.16 µM, first compound 0.0316 µM
[26] = second compound 3.16 µM, first compound 0.1 µM
[27] = second compound 3.16 µM, first compound 0.316 µM
[28] = second compound 3.16 µM, first compound 1 µM
[29] = second compound 3.16 µM, first compound 3.16 µM
[30] = second compound 3.16 µM, first compound 10 µM
[31] = second compound 10 µM, first compound 0.0316 µM
[32] = second compound 10 µM, first compound 0.1 µM
[33] = second compound 10 µM, first compound 0.316 µM
[34] = second compound 10 µM, first compound 1 µM
[35] = second compound 10 µM, first compound 3.16 µM
[36] = second compound 10 µM, first compound 10 µM
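Also: spheroids exposed to compounds for seven days before readout.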
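For viability, T/C in this document: percent viability relative to DMSO vehicle control wells as 100%.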

C=CC(=O)N1CCN(c2nc(=O)n(-c3c(C)ccnc3C(C)C)c3nc(-c4c(O)cccc4F)c(F)cc23)C(C)C1 (centres undefined) + CN(C)c1ccc(Nc2c3ccc(NC(=O)CCN4CCCC4)cc3nc3cc(NC(=O)CCN4CCCC4)ccc23)cc1 was tested, and the IC50 (second compound 0.0316 µM) was greater than 10 µM, the IC50 (second compound 0.1 µM) was greater than 10 µM and the IC50 (second compound 0.316 µM) was greater than 10 µM. For the same molecule, the IC50 (second compound 1 µM) was greater than 10 µM, the IC50 (second compound 3.16 µM) was greater than 10 µM and the IC50 (second compound 10 µM) was greater than 10 µM. For the same molecule, the viability, T/C [1] was 111%, the viability, T/C [2] was 90.2% and the viability, T/C [3] was 102%. The viability, T/C [4] was 98.1%, the viability, T/C [5] was 120% and the viability, T/C [6] was 112%. For the same molecule, the viability, T/C [7] was 88.5%, the viability, T/C [8] was 98.3% and the viability, T/C [9] was 110%. The viability, T/C [10] was 99.5%, the viability, T/C [11] was 114% and the viability, T/C [12] was 96.6%. The viability, T/C [13] was 90.5%, the viability, T/C [14] was 95.7% and the viability, T/C [15] was 96.2%. For the same molecule, the viability, T/C [16] was 101%, the viability, T/C [17] was 119% and the viability, T/C [18] was 120%. It also gave a viability, T/C [19] of 128%, a viability, T/C [20] of 110% and a viability, T/C [21] of 94.8%. It also gave a viability, T/C [22] of 108%, a viability, T/C [23] of 125% and a viability, T/C [24] of 98.6%. It also gave a viability, T/C [25] of 108%, a viability, T/C [26] of 95.6% and a viability, T/C [27] of 90.5%. It also gave a viability, T/C [28] of 107%, a viability, T/C [29] of 114% and a viability, T/C [30] of 108%. The viability, T/C [31] was 86.2%, the viability, T/C [32] was 104% and the viability, T/C [33] was 86.6%. It also gave a viability, T/C [34] of 91.1%, a viability, T/C [35] of 88.2% and a viability, T/C [36] of 73.1%.

For CCCS(=O)(=O)Nc1ccc(F)c(C(=O)c2c[nH]c3ncc(-c4ccc(Cl)cc4)cc23)c1F + Cc1cnc(CNC(=O)c2c(=O)c3ccc(N4CCCN(C)CC4)nc3n3c2sc2ccccc23)cn1, the IC50 (second compound 0.0316 µM) was greater than 10 µM, the IC50 (second compound 0.1 µM) was greater than 10 µM and the IC50 (second compound 0.316 µM) was greater than 10 µM. The IC50 (second compound 1 µM) was less than 0.0316 µM, the IC50 (second compound 3.16 µM) was less than 0.0316 µM and the IC50 (second compound 10 µM) was less than 0.0316 µM. For the same molecule, the viability, T/C [1] was 95.8%, the viability, T/C [2] was 77.4% and the viability, T/C [3] was 82.9%. For the same molecule, the viability, T/C [4] was 81.8%, the viability, T/C [5] was 92.8% and the viability, T/C [6] was 66%. For the same molecule, the viability, T/C [7] was 63.8%, the viability, T/C [8] was 68.2% and the viability, T/C [9] was 60.2%. The viability, T/C [10] was 80.3%, the viability, T/C [11] was 76.3% and the viability, T/C [12] was 49.7%. For the same molecule, the viability, T/C [13] was 55.9%, the viability, T/C [14] was 55.3% and the viability, T/C [15] was 51.2%. It also gave a viability, T/C [16] of 56.4%, a viability, T/C [17] of 57.8% and a viability, T/C [18] of 49.9%. The viability, T/C [19] was 45.4%, the viability, T/C [20] was 56.1% and the viability, T/C [21] was 47%. The viability, T/C [22] was 41.4%, the viability, T/C [23] was 48.9% and the viability, T/C [24] was 35.4%. For the same molecule, the viability, T/C [25] was 45.1%, the viability, T/C [26] was 43.5% and the viability, T/C [27] was 43.6%. For the same molecule, the viability, T/C [28] was 44.3%, the viability, T/C [29] was 43.9% and the viability, T/C [30] was 40.9%. It also gave a viability, T/C [31] of 39.1%, a viability, T/C [32] of 36.3% and a viability, T/C [33] of 30.1%. The viability, T/C [34] was 37.2%, the viability, T/C [35] was 39.6% and the viability, T/C [36] was 35.4%.
